# According to patent US12391646B2, “Using adiponectin receptor agonists to treat inflammation and bone diseases in diabetes” (Trustees of Tufts College, priority 2020, dated 2025):
# Key:
# [1] = test system: mice with LPS-induced endotoxemia; assay: LPS-induced endotoxemia in WT mice; format: in vivo, C57BL/6 mice
# Method: FIG. 4 AdipoAI protects against LPS-induced endotoxemia. Endotoxemia was induced in WT mice by intraperitoneal injection with LPS ([…]), and control littermates were administered with equivalent volumes of PBS. APR or AdipoAI were orally gavaged into mice for 24 hours before LPS challenge and control animals were administered with equivalent volumes of DMSO. (a) mRNA expression levels of pro-inflammatory cytokines in lung, spleen, liver and WAT were measured by qRT-PCR and normalized with GAPDH mRNA levels. Data are shown as mean±SEM (n=6). (b) Survival curve of mice with endotoxemia (n=12). (c) Serum levels of IL-6 and IL-1β were measured by ELISA. Data are expressed as mean±SEM (n=6). (d) Histopathology for lung, spleen, liver and WAT tissues isolated from APR- or AdipoAI-treated mice 24 h before LPS challenge (n=6). Upper panel: Hematoxylin and cosin staining; Lower panel: Immunohistochemical staining for macrophage marker F4/80. Red arrow indicates F4/80 positive cells. One-way ANOVA test for multiple-group comparisons, * vs. DMSO+PBS group, # vs. DMSO+LPS group. */#P<0.05, significant differences between each indicated group. ns, not significant.
# The Ethics Committee on the Use and Care of Animals at Tufts University approved the study protocol (Boston, MA, USA). The animals received humane care according to the criteria outlined in the Guide for the Care and Use of Laboratory Animals prepared by the National Academy of Sciences and published by the National Institutes of Health. All experiments involving animals or animal tissue are reported in compliance with the guidelines of ARRIVE and BJP (Kilkenny et al., 2010; McGrath and Lilley, 2015). Experimental protocols and design adhere to BJP guidelines (Curtis et al., 2015). Wild-type (WT, C57BL/6J, Jax #000664), DIO (Jax #380050), and APN KO (Jax #008195) mice were purchased from the Jackson Laboratory. The DIO mice were fed with a high-fat diet (containing 60% kcal from fat; Jackson Laboratory) at 6 weeks of age and later. The WT mice were fed with ordinary diet as normal chow (NC)-fed mice, and APN KO mice were maintained and fed with an NC diet as previously described (Tu et al., 2011). For the LPS-induced endotoxemia model, male C57BL/6 mice aged 8 weeks received oral gavage with APR (50 mg/kg body weight) or AdipoAI (25 mg/kg body weight) for 24 h before by LPS (20 mg/kg body weight) treatment which was administered intraperitoneally whereas control animals were treated with equivalent volumes of normal PBS. Mouse survival in each group was monitored and recorded up to 84 h. All mice were killed at 1 h for detection of activation of inflammatory genes, at 6 h for determination of inflammatory factors in serum, and at 24 h for histological evaluation. Animal data were excluded from experiments based on pre-established criteria of visible abnormal tissue structure during sample harvest or other health issues, including fighting wounds.
# APPL1/MyD88 interaction = assay: Co-immunoprecipitation of AdipoR1, APPL1 and MyD88 in Raw264.7 cells; format: cell-based; details: AdipoAI (5 μM) and LPS-treated cells compared to control cells
# Method: FIG. 6 Involvement of APPL1/MyD88 interaction in the anti-inflammatory effects of AdipoAI in macrophages. (a) RAW 264.7 cells were transfected with siRNA targeting MyD88, c-Maf or scrambled control siRNA for 24 h, followed by stimulation with LPS for 6 h. Transfection efficiency of siRNA and mRNA expression levels of proinflammatory cytokines were measured by qPCR and normalized with GAPDH mRNA levels. Data were expressed as the mean±SEM at five biological independent experiments. One-way ANOVA test for multiple-group comparisons, * vs. LPS+Scrambled group, *P<0.05, significant differences between each indicated group. ns, not significant. (b) Raw264.7 cells were transfected with siRNA targeting MyD88 or scrambled control siRNA for 24 h, followed by stimulation with LPS for 30 min for measurement of related proteins. Representative images are shown along with β-actin as an internal loading control and densitometric analysis. Densitometry values-MyD88: 1.00, 0.24, 1.20, 0.33; pIRAK4: 1.00, 0.00; p-P38: 1.00, 0.11. […] Proteins immunoprecipitated with the anti-MyD88 antibody were analyzed by immunoblotting with antibodies for MyD88, APPL1, and AdipoR1. […]
# The RAW 264.7 macrophages were seeded at a density of 6×10^6 cells per 100 mm dish. […] The immunoprecipitates were washed with lysis buffer and further analyzed by polyacrylamide gel electrophoresis and Western blot analyses. […]
structure (smiles),measurement,setting,value
COc1ccc(CN2CCC(NC(=O)COc3ccc(C(=O)c4ccc(Cl)cc4)cc3)CC2)cc1 [Compound 3],serum levels of IL-6 and IL-1β,[1]; 6 h post-LPS administration,reduced serum levels of pro-inflammatory cytokines IL-6 and IL-1β
same,lung histopathology,"[1]; 24 h, LPS-challenged mice",fewer lung lesions and decreased inflammatory cell infiltration
same,survival rate,"[1]; 84 h post-LPS challenge, vehicle 12.5%",40%
same,"LPS-induced spleen, liver and WAT injury and inflammatory responses",[1]; LPS-challenged mice,alleviated
same,"c-Maf mRNA and protein levels in lung, spleen, liver and WAT","[1]; LPS-challenged mice, qPCR and IHC",decreased
same,expression of TNF-α in tissues,[1]; LPS-induced endotoxemia mice (sentence also covers DIO mice),did not inhibit the expression of TNF-α
same,"mRNA levels of proinflammatory genes in lung, spleen, WAT, liver",[1]; oral gavage 24 h before LPS challenge,decreased mRNA levels of proinflammatory genes
same,interaction of APPL1 with MyD88 (Co-IP),APPL1/MyD88 interaction,the interaction of APPL1 with MyD88 was increased
